Laboratory results taken from article PMC2992884 (Cell metabolism, 2010).

Target: T1, ACS-3 (Caenorhabditis elegans, UniProt O44560)
T1 sequence (O44560 1-653): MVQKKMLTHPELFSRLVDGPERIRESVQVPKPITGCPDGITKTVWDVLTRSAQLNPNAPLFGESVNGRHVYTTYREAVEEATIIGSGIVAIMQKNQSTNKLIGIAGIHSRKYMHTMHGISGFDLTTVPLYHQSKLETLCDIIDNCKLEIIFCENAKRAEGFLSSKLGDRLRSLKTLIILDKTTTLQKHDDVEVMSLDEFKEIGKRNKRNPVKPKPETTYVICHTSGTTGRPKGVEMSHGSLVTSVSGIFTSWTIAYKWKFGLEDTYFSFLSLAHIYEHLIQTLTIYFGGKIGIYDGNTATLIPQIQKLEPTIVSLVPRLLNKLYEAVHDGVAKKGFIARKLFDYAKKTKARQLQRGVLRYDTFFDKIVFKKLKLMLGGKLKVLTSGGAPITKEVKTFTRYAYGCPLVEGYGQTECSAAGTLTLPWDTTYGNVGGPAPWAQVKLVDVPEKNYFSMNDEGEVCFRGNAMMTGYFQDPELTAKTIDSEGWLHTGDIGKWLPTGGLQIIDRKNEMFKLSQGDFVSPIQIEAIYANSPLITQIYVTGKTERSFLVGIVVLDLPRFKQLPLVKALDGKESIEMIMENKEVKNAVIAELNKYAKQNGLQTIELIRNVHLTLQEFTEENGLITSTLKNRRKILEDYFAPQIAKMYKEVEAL
Test: acyl-CoA oxidase/catalase coupled colorimetric assay, […] nm
Type: biochemical
Details: with free long-chain fatty acid (18-carbon preferred)

Structure (SMILES): CC(C)(COP(=O)(O)OP(=O)(O)OC[C@H]1O[C@@H](n2cnc3c(N)ncnc32)[C@H](O)[C@@H]1OP(=O)(O)O)[C@@H](O)C(=O)NCCC(=O)NCCS [CoA]
- acyl-CoA oxidase/catalase coupled colorimetric assay, 550 nm: ACS activity generates acyl-CoA species from free fatty acid and CoA
